From patent US20130035326A1 (AMBIT BIOSCIENCES CORPORATION, priority 2009, published 2013)

Legend:
[1] = test system: MV4-11 cells; experiment: MV4-11 cell proliferation assay (Alamar Blue); format: cell-based; conditions: Homo sapiens, MV4-11, 72 h, 3 days incubation
In short: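 Flt3-ITD MV4-11 cells were serum-starved overnight in Iscove's with 0.5% FBS, then given compound at 9 half-log concentrations (0.5% DMSO) for 3 days at 37° C. Alamar Blue reduction was read after 3 h by fluorescence (560/590 nm). IC50 is the mean of duplicates versus negative control.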

[2] = target: T1, KIT kinase (Homo sapiens, UniProt P10721); experiment: Competition binding assay, KIT Kd
T1 construct: made in house; host or cells: T7 phage display or HEK-293 cells
T1 sequence (P10721 26-976): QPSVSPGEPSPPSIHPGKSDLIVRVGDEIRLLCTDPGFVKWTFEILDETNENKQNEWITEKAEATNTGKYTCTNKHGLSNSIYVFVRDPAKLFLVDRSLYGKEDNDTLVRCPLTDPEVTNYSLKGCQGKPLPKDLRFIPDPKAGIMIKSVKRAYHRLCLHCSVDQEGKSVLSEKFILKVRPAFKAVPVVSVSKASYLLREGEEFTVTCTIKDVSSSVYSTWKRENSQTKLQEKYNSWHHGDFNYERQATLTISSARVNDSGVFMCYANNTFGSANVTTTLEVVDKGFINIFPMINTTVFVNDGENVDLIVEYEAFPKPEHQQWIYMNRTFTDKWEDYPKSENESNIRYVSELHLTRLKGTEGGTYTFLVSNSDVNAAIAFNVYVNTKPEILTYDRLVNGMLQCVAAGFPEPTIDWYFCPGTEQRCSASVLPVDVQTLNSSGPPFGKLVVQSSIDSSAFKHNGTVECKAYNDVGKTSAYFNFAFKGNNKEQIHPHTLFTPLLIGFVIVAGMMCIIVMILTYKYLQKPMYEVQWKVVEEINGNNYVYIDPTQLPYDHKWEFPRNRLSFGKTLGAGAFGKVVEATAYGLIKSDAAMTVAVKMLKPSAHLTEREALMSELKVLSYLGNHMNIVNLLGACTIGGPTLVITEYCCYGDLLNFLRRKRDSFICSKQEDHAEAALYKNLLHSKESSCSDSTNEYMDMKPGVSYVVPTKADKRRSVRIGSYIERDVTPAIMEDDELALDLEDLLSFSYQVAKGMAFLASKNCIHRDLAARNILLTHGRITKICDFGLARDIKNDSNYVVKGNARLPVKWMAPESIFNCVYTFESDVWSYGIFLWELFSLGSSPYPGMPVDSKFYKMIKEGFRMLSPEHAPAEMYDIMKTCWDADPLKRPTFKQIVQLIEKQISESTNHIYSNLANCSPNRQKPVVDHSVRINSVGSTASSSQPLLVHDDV
In short: (§1)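 Kd values derived from an eleven-point, threefold compound dilution series in a bead-based competition format: kinase (phage-fused or HEK-293-derived with DNA tag), ligand-coated streptavidin beads and compound equilibrated 1 h at room temperature. After washing, retained kinase was eluted with non-biotinylated ligand (0.5 μM) and measured by quantitative PCR.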

[3] = target: kinase panel containing either 359 or 386 distinct kinases; experiment: Selectivity score S10 from competition binding against a panel of kinases; conditions: compounds at 10 μM; for Kinase specificty: S(10)-359 panel: panel of 359 distinct kinases; for Kinase specificty: S(10)-386 panel: panel of 386 distinct kinases
Experimental: Competition binding assays used herein were developed, validated and performed as described in Fabian et al., Nature Biotechnology 2005, 23,329-336. Kinases were produced as fusions to T7 phage (See, Fabian et al. or WO04/015142) or alternatively, the kinases were expressed in HEK-293 cells and subsequently tagged with DNA for PCR detection (See, WO08/005,310). For the binding assays, streptavidin-coated magnetic beads were treated with biotinylated affinity ligands for 30 min at room temperature to generate affinity resins. The liganded beads were blocked with excess biotin and washed with blocking buffer (SeaBlock (Pierce), 1% BSA, 0.05% Tween 20, 1 mM DTT) to remove unbound ligand and to reduce non-specific binding. Binding reactions were assembled by combining kinase, liganded affinity beads, and test compounds in 1× binding buffer (20% SeaBlock, 0.17×PBS, 0.05% Tween 20, 6 mM DTT). Test compounds were prepared as 100× stocks in DMSO and diluted into the aqueous environment. Kds were determined using an eleven point threefold serial dilutions. DMSO or control compounds were was added to control assays lacking a test compound. Primary screen assays were performed in polypropylene 384-well plates in a final volume of 20-40 μL, while Kd determinations were performed in polystyrene 96-well plates in a final volume of 135 μL. The assay plates were incubated at room temperature with shaking for 1 hour to allow the binding reactions to reach equilibrium, and the affinity beads were washed extensively with wash buffer (1×PBS, 0.05% Tween 20) to remove unbound protein. The beads were then resuspended in elution buffer (1×PBS, 0.05% Tween 20, 0.5 μM non-biotinylated affinity ligand) and incubated at room temperature with shaking for 30 min. The kinase concentration in the eluates was measured by quantitative PCR.
A selectivity score (S10) is a quantitative measure of selectivity of a compound against a panel of kinases. An S10 was calculated for a compound by dividing the number of kinases found to have a percent of control (DMSO) less than 10 by the total number of distinct kinases tested (excluding mutant variants). Percent of control (POC) is calculated by subtracting the signal of the control compound (POC=0) from the signal of the test compound and dividing the outcome by the signal of DMSO (POC=100) minus the signal of the control compound. For the compounds disclosed herein, S10 scores were obtained by testing the compounds at 10 μM concentration in a kinase panel containing either 359 or 386 distinct kinases.

[4] = target: T2, FLT3 kinase (Homo sapiens, UniProt P36888); experiment: Competition binding assay, FLT3 Kd
T2 construct: made in house; host or cells: T7 phage display or HEK-293 cells
T2 sequence (P36888 27-993): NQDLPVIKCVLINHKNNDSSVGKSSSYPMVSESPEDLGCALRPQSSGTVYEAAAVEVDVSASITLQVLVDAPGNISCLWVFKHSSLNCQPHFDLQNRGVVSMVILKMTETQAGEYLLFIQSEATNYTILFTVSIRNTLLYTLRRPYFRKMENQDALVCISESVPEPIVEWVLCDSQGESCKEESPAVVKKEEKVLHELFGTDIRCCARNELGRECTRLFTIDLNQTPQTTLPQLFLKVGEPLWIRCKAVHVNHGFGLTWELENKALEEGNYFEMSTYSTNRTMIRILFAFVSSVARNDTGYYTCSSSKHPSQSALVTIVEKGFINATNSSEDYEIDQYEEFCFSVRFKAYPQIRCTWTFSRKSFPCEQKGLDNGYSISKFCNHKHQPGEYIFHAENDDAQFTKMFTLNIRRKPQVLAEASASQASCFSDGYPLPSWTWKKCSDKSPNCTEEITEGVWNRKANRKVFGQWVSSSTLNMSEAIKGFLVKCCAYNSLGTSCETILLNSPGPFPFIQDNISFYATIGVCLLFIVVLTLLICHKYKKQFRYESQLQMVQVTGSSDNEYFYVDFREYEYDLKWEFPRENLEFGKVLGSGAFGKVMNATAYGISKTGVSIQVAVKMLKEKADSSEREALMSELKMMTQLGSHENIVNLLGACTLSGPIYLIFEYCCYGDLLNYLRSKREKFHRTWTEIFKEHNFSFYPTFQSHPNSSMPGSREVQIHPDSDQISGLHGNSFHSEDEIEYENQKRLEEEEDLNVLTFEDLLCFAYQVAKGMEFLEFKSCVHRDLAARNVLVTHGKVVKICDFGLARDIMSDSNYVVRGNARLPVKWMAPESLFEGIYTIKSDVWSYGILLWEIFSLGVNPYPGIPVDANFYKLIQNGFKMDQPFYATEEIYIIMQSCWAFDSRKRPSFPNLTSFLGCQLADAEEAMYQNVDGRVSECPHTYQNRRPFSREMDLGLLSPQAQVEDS
In short: as §1

[5] = target: T3, CSF-1R kinase (Homo sapiens, UniProt P07333); experiment: Competition binding assay, CSF-1R Kd
T3 construct: made in house; host or cells: T7 phage display or HEK-293 cells
T3 sequence (P07333 20-972): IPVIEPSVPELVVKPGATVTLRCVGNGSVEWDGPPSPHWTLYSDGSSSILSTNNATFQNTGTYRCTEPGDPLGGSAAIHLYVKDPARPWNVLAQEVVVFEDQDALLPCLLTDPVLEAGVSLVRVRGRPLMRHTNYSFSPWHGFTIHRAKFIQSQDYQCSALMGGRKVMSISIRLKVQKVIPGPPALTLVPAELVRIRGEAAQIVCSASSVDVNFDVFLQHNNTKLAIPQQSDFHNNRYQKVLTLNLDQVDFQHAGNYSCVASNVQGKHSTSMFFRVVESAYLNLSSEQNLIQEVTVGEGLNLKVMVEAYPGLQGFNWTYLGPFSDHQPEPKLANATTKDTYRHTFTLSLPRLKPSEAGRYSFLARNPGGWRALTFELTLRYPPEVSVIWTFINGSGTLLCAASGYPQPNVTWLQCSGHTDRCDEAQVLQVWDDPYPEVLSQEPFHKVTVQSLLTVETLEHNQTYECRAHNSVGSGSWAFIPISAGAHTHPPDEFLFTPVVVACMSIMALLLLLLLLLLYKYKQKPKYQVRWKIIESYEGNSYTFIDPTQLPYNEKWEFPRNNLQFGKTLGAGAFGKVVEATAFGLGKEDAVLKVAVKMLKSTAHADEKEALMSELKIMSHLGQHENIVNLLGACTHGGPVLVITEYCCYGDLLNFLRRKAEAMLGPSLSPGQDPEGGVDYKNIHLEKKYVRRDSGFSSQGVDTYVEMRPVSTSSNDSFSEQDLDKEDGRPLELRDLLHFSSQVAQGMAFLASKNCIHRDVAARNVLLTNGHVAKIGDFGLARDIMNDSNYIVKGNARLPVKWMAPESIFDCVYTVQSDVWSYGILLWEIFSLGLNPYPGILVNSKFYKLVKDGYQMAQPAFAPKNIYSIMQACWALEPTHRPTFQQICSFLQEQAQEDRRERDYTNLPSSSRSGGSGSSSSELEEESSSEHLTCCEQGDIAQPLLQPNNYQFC
In short: as §1

| IC50 [1] | Kd [2] | Kinase specificty: S(10)-359 panel [3] | Kd [4] | Kd [5] | Kinase specificty: S(10)-386 panel [3] | SMILES |
| --- | --- | --- | --- | --- | --- | --- |
| ≤ 1 nM | 1 to 10 nM |  | ≤ 1 nM | ≤ 10 nM | A (A≦0.1) | CC(C)(C)c1cc(NC(=O)Cc2ccc(-c3cc(F)c(N)nc3F)cc2)no1.CS(=O)(=O)O [Example 152, 5-(4-(2-(5-tert-butylisoxazol-3-ylamino)-2-oxoethyl)phenyl)-3,6-difluoropyridin-2-aminium methanesulfonate] |
| 1 to 10 nM | 10 to 100 nM |  | ≤ 1 nM | ≤ 10 nM | B (0.1<B≦0.2 nM) | CC(C)(C)c1cc(NC(=O)Cc2ccc(-c3cnc(N)cc3F)cc2)no1.CS(=O)(=O)O [Example 151, 5-(4-(2-(5-tert-butylisoxazol-3-ylamino)-2-oxoethyl)phenyl)-4-fluoropyridin-2-aminium methanesulfonate] |
| ≤ 1 nM | ≤ 1 nM |  | ≤ 1 nM | ≤ 10 nM | B (0.1<B≦0.2 nM) | CC1(c2cc(NC(=O)Cc3ccc(-c4cnc(N)c(F)c4)cc3)no2)CC1.CS(=O)(=O)O [Example 138, 3-fluoro-5-(4-(2-(5-(1-methylcyclopropyl)isoxazol-3-ylamino)-2-oxoethyl)phenyl)pyridin-2-aminium methanesulfonate] |
| 10 to 100 nM | 1 to 10 nM |  | ≤ 1 nM | 10 to 100 nM | A (A≦0.1) | Cc1nc(N)cnc1-c1ccc(CC(=O)Nc2cc(C(C)(C)C)on2)cc1 [Example 165] |
| 10 to 100 nM | ≤ 1 nM |  | ≤ 1 nM | ≤ 10 nM | A (A≦0.1) | Cc1nc(N)ccc1-c1ccc(CC(=O)Nc2cc(C3(C)CC3)on2)cc1 [Example 162] |

More lines, now with the values behind:

| SMILES | IC50 [1] | Kd [2] | Kinase specificty: S(10)-359 panel [3] | Kd [4] | Kd [5] | Kinase specificty: S(10)-386 panel [3] |
| --- | --- | --- | --- | --- | --- | --- |
| CC(C)(C)c1cc(NC(=O)Nc2ccc(-c3cnc(NC4CCOCC4)nc3)cn2)no1 [Example 63, 1-(5-tert-butylisoxazol-3-yl)-3-(5-(2-(tetrahydro-2H-pyran-4-ylamino)pyrimidin-5-yl)pyridin-2-yl)urea] | 10 to 100 nM | ≤ 1 nM | B (0.1<B≦0.2 nM) | ≤ 1 nM | ≤ 10 nM |  |
| CC(C)(C)c1cc(NC(=O)Nc2ccc(-c3cnc4c(c3)COCCN4)cc2)no1 [Example 21, 1-(5-tert-butylisoxazol-3-yl)-3-(4-(1,2,3,5-tetrahydropyrido[2,3-e][1,4]oxazepin-7-yl)phenyl)urea] | 1 to 10 nM | ≤ 1 nM | B (0.1<B≦0.2 nM) | ≤ 1 nM | ≤ 10 nM |  |
| CC(C)(C)c1cc(NC(=O)Nc2ccc(-c3cnc(N)c(CN4CCOCC4)c3)cc2)no1 [Example 13, 1-(4-(6-amino-5-(morpholinomethyl)pyridin-3-yl)phenyl)-3-(5-tert-butylisoxazol-3-yl)urea] | 10 to 100 nM | 1 to 10 nM | B (0.1<B≦0.2 nM) | 1 to 10 nM | 10 to 100 nM |  |
| Cc1ccc(F)c(NC(=O)Nc2ccc(-c3cnc(NCCN4CCOCC4)nc3)cc2)c1 [Example 55, 1-(2-fluoro-5-methylphenyl)-3-(4-(2-(2-morpholinoethylamino)pyrimidin-5-yl)phenyl)urea] | 100 to 500 nM | ≤ 1 nM | A (A≦0.1) | 1 to 10 nM | ≤ 10 nM |  |
| CC(C)(C)c1cc(NC(=O)Nc2ccc(-c3cnc(NCCN4CCCCC4)nc3)cc2)no1 [Example 60, 1-(5-tert-butylisoxazol-3-yl)-3-(4-(2-(2-(piperidin-1-yl)ethylamino)pyrimidin-5-yl)phenyl)urea] | 10 to 100 nM | 1 to 10 nM | B (0.1<B≦0.2 nM) | ≤ 1 nM | ≤ 10 nM |  |
| CC(C)(C)c1cc(NC(=O)Nc2ccc(-c3cnc(CCCN4CCOCC4)nc3)cc2)no1 [Example 56, 1-(5-tert-butylisoxazol-3-yl)-3-(4-(2-(3-morpholinopropyl)pyrimidin-5-yl)phenyl)urea] | 10 to 100 nM | 1 to 10 nM | A (A≦0.1) | ≤ 1 nM | ≤ 10 nM |  |
| CC(C)(C)c1cc(NC(=O)Nc2ccc(-c3cnc(OCCN4CCOCC4)nc3)cc2)no1 [Example 47, 1-(5-tert-Butyl-isoxazol-3-yl)-3-{4-[2-(2-morpholin-4-yl-ethoxy)-pyrimidin-5-yl]-phenyl}-urea] | 10 to 100 nM | 1 to 10 nM | A (A≦0.1) | 1 to 10 nM | 10 to 100 nM |  |
| CC(C)Nc1ncc(-c2ccc(NC(=O)Nc3cc(C(C)(C)C)on3)nc2)cn1 [Example 65, 1-(5-tert-butylisoxazol-3-yl)-3-(5-(2-(isopropylamino)pyrimidin-5-yl)pyridin-2-yl)urea] | 10 to 100 nM | ≤ 1 nM | B (0.1<B≦0.2 nM) | ≤ 1 nM | ≤ 10 nM |  |
| CC(C)(C)c1cc(NC(=O)Cc2ccc(-c3ccc(N)nc3Cl)cc2)no1.CS(=O)(=O)O [Example 132, 5-(4-(2-(5-tert-butylisoxazol-3-ylamino)-2-oxoethyl)phenyl)-6-chloropyridin-2-aminium methanesulfonate] | 1 to 10 nM | 1 to 10 nM |  | ≤ 1 nM | ≤ 10 nM | A (A≦0.1) |
| CC(C)(C)c1cc(NC(=O)Nc2ccc(-c3cnc(N)nc3)cc2)no1 [Example 44, 1-(4-(2-aminopyrimidin-5-yl)phenyl)-3-(5-tert-butylisoxazol-3-yl)urea] | ≤ 1 nM | 1 to 10 nM | B (0.1<B≦0.2 nM) | ≤ 1 nM | ≤ 10 nM |  |
| CC(C)(C)c1cc(NC(=O)Cc2ccc(-c3ccc(N)nc3)c(F)c2)no1.CS(=O)(=O)O [Example 125, 5-(4-(2-(5-tert-butylisoxazol-3-ylamino)-2-oxoethyl)-2-fluorophenyl)pyridin-2-aminium methanesulfonate] | ≤ 1 nM | ≤ 1 nM |  | ≤ 1 nM | ≤ 10 nM | A (A≦0.1) |
